Patent US8802597B2, “Herbicidal pyrimidines” (E I du Pont de Nemours and Company, priority 2003, dated 2014)

Experiments:
Test in all cases: Test D pre/postemergence
Type in all cases: in vivo
Details in all cases: scale 0 to 100 (100 = complete control)
[1] = system: Russian thistle (Salsola kali)
Excerpt: (§1) Seeds of plant species selected from catchweed bedstraw (galium; Galium aparine), common chickweed (Stellaria media), kochia (Kochia scoparia), lambsquarters (Chenopodium album), pigweed (Amaranthus retroflexus), Russian thistle (Salsola kali), wild buckwheat (Polygonum convolvulus), wild mustard (Sinapis arvensis), winter barley (Hordeum vulgare), and wheat (Triticum aestivum) were planted and treated preemergence with test chemicals formulated in a non-phytotoxic solvent mixture which included a surfactant.
(§2) At the same time, plants selected from these crop and weed species were treated with postemergence applications of some of the test chemicals formulated in the same manner. Plants ranged in height from 2 to 18 cm (1- to 4-leaf stage) for postemergence treatments. Treated plants and controls were maintained in a controlled growth environment for 15 to 25 days after which time all species were compared to controls and visually evaluated. Plant response ratings, summarized in Table D, are based on a scale of 0 to 100 where 0 is no effect and 100 is complete control. A dash (-) response means no test result.

[2] = system: catchweed bedstraw (galium; Galium aparine)
Excerpt: as §1, §2

[3] = system: common chickweed (Stellaria media)
Excerpt: as §1, §2

[4] = system: kochia (Kochia scoparia)
Excerpt: as §1, §2

[5] = system: lambsquarters (Chenopodium album)
Excerpt: as §1, §2

[6] = system: pigweed (Amaranthus retroflexus)
Excerpt: as §1, §2

[7] = system: wheat (Triticum aestivum)
Excerpt: as §1, §2

[8] = system: wild buckwheat (Polygonum convolvulus)
Excerpt: as §1, §2

[9] = system: wild mustard (Sinapis arvensis)
Excerpt: as §1, §2

Compound: CCOC(=O)Cc1nc(C2CC2)nc(N=CN(C)C)c1Br [Compound 33]
- Plant response rating, Russian Thistle ([1]; Postemergence, 62 g ai/ha): 30
- Plant response rating, Russian Thistle ([1]; Postemergence, 125 g ai/ha): 40
- Plant response rating, Russian Thistle ([1]; Postemergence, 250 g ai/ha): 40
- Plant response rating, Russian Thistle ([1]; Preemergence, 62 g ai/ha): 55
- Plant response rating, Russian Thistle ([1]; Preemergence, 125 g ai/ha): 60
- Plant response rating, Russian Thistle ([1]; Preemergence, 250 g ai/ha): 85
- Plant response rating, Galium ([2]; Postemergence, 62 g ai/ha): 55
- Plant response rating, Galium ([2]; Postemergence, 125 g ai/ha): 60
- Plant response rating, Galium ([2]; Postemergence, 250 g ai/ha): 65
- Plant response rating, Galium ([2]; Preemergence, 62 g ai/ha): 70
- Plant response rating, Galium ([2]; Preemergence, 125 g ai/ha): 80
- Plant response rating, Galium ([2]; Preemergence, 250 g ai/ha): 100
- Plant response rating, Chickweed ([3]; Postemergence, 62 g ai/ha): 40
- Plant response rating, Chickweed ([3]; Postemergence, 125 g ai/ha): 50
- Plant response rating, Chickweed ([3]; Postemergence, 250 g ai/ha): 60
- Plant response rating, Chickweed ([3]; Preemergence, 250 g ai/ha): 65
- Plant response rating, Kochia ([4]; Postemergence, 62 g ai/ha): 50
- Plant response rating, Kochia ([4]; Postemergence, 125 g ai/ha): 50
- Plant response rating, Kochia ([4]; Postemergence, 250 g ai/ha): 50
- Plant response rating, Kochia ([4]; Preemergence, 62 g ai/ha): 60
- Plant response rating, Kochia ([4]; Preemergence, 125 g ai/ha): 65
- Plant response rating, Kochia ([4]; Preemergence, 250 g ai/ha): 65
- Plant response rating, Lambsquarters ([5]; Postemergence, 62 g ai/ha): 30
- Plant response rating, Lambsquarters ([5]; Postemergence, 125 g ai/ha): 30
- Plant response rating, Lambsquarters ([5]; Postemergence, 250 g ai/ha): 45
- Plant response rating, Lambsquarters ([5]; Preemergence, 62 g ai/ha): 60
- Plant response rating, Lambsquarters ([5]; Preemergence, 125 g ai/ha): 65
- Plant response rating, Lambsquarters ([5]; Preemergence, 250 g ai/ha): 65
- Plant response rating, Pigweed ([6]; Postemergence, 62 g ai/ha): 45
- Plant response rating, Pigweed ([6]; Postemergence, 125 g ai/ha): 55
- Plant response rating, Pigweed ([6]; Postemergence, 250 g ai/ha): 55
- Plant response rating, Pigweed ([6]; Preemergence, 62 g ai/ha): 60
- Plant response rating, Pigweed ([6]; Preemergence, 125 g ai/ha): 70
- Plant response rating, Pigweed ([6]; Preemergence, 250 g ai/ha): 90
- Plant response rating, Wheat ([7]; Postemergence, 62 g ai/ha): 35
- Plant response rating, Wheat ([7]; Postemergence, 125 g ai/ha): 40
- Plant response rating, Wheat ([7]; Postemergence, 250 g ai/ha): 45
- Plant response rating, Wheat ([7]; Preemergence, 62 g ai/ha): 15
- Plant response rating, Wheat ([7]; Preemergence, 125 g ai/ha): 35
- Plant response rating, Wheat ([7]; Preemergence, 250 g ai/ha): 55
- Plant response rating, Buckwheat, Wild ([8]; Postemergence, 62 g ai/ha): 40
- Plant response rating, Buckwheat, Wild ([8]; Postemergence, 125 g ai/ha): 50
- Plant response rating, Buckwheat, Wild ([8]; Postemergence, 250 g ai/ha): 55
- Plant response rating, Buckwheat, Wild ([8]; Preemergence, 62 g ai/ha): 55
- Plant response rating, Buckwheat, Wild ([8]; Preemergence, 125 g ai/ha): 65
- Plant response rating, Buckwheat, Wild ([8]; Preemergence, 250 g ai/ha): 65
- Plant response rating, Mustard, Wild ([9]; Postemergence, 62 g ai/ha): 50
- Plant response rating, Mustard, Wild ([9]; Postemergence, 125 g ai/ha): 50
- Plant response rating, Mustard, Wild ([9]; Postemergence, 250 g ai/ha): 50
- Plant response rating, Mustard, Wild ([9]; Preemergence, 62 g ai/ha): 65
- Plant response rating, Mustard, Wild ([9]; Preemergence, 125 g ai/ha): 65
- Plant response rating, Mustard, Wild ([9]; Preemergence, 250 g ai/ha): 65

Compound: CCOC(=O)C(OC(C)=O)c1nc(C2CC2)nc(N)c1Br (stereo not shown) [Compound 47]
- Plant response rating, Russian Thistle ([1]; Postemergence, 31 g ai/ha): 45
- Plant response rating, Russian Thistle ([1]; Postemergence, 62 g ai/ha): 55
- Plant response rating, Russian Thistle ([1]; Postemergence, 125 g ai/ha): 65
- Plant response rating, Russian Thistle ([1]; Postemergence, 250 g ai/ha): 70
- Plant response rating, Galium ([2]; Postemergence, 31 g ai/ha): 65
- Plant response rating, Galium ([2]; Postemergence, 62 g ai/ha): 75
- Plant response rating, Galium ([2]; Postemergence, 125 g ai/ha): 80
- Plant response rating, Galium ([2]; Postemergence, 250 g ai/ha): 98
- Plant response rating, Chickweed ([3]; Postemergence, 31 g ai/ha): 35
- Plant response rating, Chickweed ([3]; Postemergence, 62 g ai/ha): 60
- Plant response rating, Chickweed ([3]; Postemergence, 125 g ai/ha): 65
- Plant response rating, Chickweed ([3]; Postemergence, 250 g ai/ha): 70
- Plant response rating, Kochia ([4]; Postemergence, 31 g ai/ha): 45
- Plant response rating, Kochia ([4]; Postemergence, 62 g ai/ha): 50
- Plant response rating, Kochia ([4]; Postemergence, 125 g ai/ha): 65
- Plant response rating, Kochia ([4]; Postemergence, 250 g ai/ha): 75
- Plant response rating, Lambsquarters ([5]; Postemergence, 31 g ai/ha): 35
- Plant response rating, Lambsquarters ([5]; Postemergence, 62 g ai/ha): 35
- Plant response rating, Lambsquarters ([5]; Postemergence, 125 g ai/ha): 40
- Plant response rating, Lambsquarters ([5]; Postemergence, 250 g ai/ha): 45
- Plant response rating, Pigweed ([6]; Postemergence, 31 g ai/ha): 35
- Plant response rating, Pigweed ([6]; Postemergence, 62 g ai/ha): 50
- Plant response rating, Pigweed ([6]; Postemergence, 125 g ai/ha): 55
- Plant response rating, Pigweed ([6]; Postemergence, 250 g ai/ha): 65
- Plant response rating, Wheat ([7]; Postemergence, 31 g ai/ha): 30
- Plant response rating, Wheat ([7]; Postemergence, 62 g ai/ha): 35
- Plant response rating, Wheat ([7]; Postemergence, 125 g ai/ha): 35
- Plant response rating, Wheat ([7]; Postemergence, 250 g ai/ha): 45
- Plant response rating, Buckwheat, Wild ([8]; Postemergence, 31 g ai/ha): 60
- Plant response rating, Buckwheat, Wild ([8]; Postemergence, 62 g ai/ha): 65
- Plant response rating, Buckwheat, Wild ([8]; Postemergence, 125 g ai/ha): 65
- Plant response rating, Buckwheat, Wild ([8]; Postemergence, 250 g ai/ha): 70
- Plant response rating, Mustard, Wild ([9]; Postemergence, 31 g ai/ha): 55
- Plant response rating, Mustard, Wild ([9]; Postemergence, 62 g ai/ha): 60
- Plant response rating, Mustard, Wild ([9]; Postemergence, 125 g ai/ha): 65
- Plant response rating, Mustard, Wild ([9]; Postemergence, 250 g ai/ha): 70
